# Measured values as given in patent US4334066A (priority 1981, dated 1982).
# Experiments:
# Assay type in all cases: cell-based
# [1] = tested on: Rice blast disease (Pyricularia oxyzae); assay: microbe, parasite or virus in culture; settings: 48 h, read-out: Minimum Inhibitory Concentration
# [2] = tested on: Stem rot of eggplant (Sclerotinia Sclerotiorum); settings: 48 h, test microorganism C, PDA medium, complete inhibition of mycelial growth, read 2 days later, read-out: Minimum Inhibitory Concentration
# Excerpt: (§1) The test microorganisms employed are described below.
# C . . . Stem rot of eggplant
# (Sclerotinia Sclerotiorum)
# [3] = tested on: Gammy stem blight of melon (Mycosphaerella melonis); settings: 48 h, test microorganism D, PDA medium, complete inhibition of mycelial growth, read 2 days later, read-out: Minimum Inhibitory Concentration
# Excerpt: as §1
# D . . . Gammy stem blight of melon
# [4] = tested on: Early blight of tomato (Alternaria solaui); settings: 48 h, test microorganism E, PDA medium, complete inhibition of mycelial growth, read 2 days later, read-out: Minimum Inhibitory Concentration
# Excerpt: as §1
# E . . . Early blight of tomato
# [5] = tested on: Bacterial blight of rice (Xanthomonas oryzae); assay: microbe, parasite or virus in culture; settings: 48 h, read-out: Minimum Inhibitory Concentration
Structure (SMILES),MIC [1] [µg/mL],MIC [2] [µg/mL],MIC [3] [µg/mL],MIC [4] [µg/mL],MIC [5] [µg/mL]
"CCC1OC(OC)C=C(CN2CCNCC2)C1=O (stereo not drawn) [Compound 1, 6-ethyl-2-methoxy-4-piperazinomethyl-5-oxo-5,6-dihydro-2H-pyran]",100,100,100,200,12.5
"CCOC1C=C(CN2CCOCC2)C(=O)C(C(C)C)O1 (stereo not drawn) [Compound 2, 6-isopropyl-2-ethoxy-4-morpholinomethyl-5-oxo-5,6-dihydro-2H-pyran]",100,100,100,200,–
